Reference: ChEMBL document CHEMBL1144342, “Synthesis and structure-activity relationship of 4-substituted 2-(2-acetyloxyethyl)-8-(morpholine-4-sulfonyl)pyrrolo[3,4-c]quinoline-1,3-diones as potent caspase-3 inhibitors” (J Med Chem, 2005)

Biological target: T1, Caspase-3 (Homo sapiens, UniProt P42574)
T1 sequence (P42574 whole entry): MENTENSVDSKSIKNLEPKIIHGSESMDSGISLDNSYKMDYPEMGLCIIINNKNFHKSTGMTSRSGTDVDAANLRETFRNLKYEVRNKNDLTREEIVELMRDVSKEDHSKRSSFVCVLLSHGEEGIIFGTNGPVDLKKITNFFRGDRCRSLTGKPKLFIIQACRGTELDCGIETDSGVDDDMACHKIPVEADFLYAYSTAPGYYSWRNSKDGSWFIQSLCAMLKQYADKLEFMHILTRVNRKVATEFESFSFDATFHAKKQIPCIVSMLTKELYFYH
Experiment: In vitro inhibitory concentration against human caspase-3

IC50	Structure (SMILES)
40 nM	CC(=O)OCCN1C(=O)c2c(C(C)C)nc3ccc(S(=O)(=O)N4CCOCC4)cc3c2C1=O
294 nM	CC(=O)OCCN1C(=O)c2c(Cl)nc3ccc(S(=O)(=O)N4CCOCC4)cc3c2C1=O
1290 nM	COC(=O)CSc1nc2ccc(S(=O)(=O)N3CCOCC3)cc2c2c1C(=O)N(CCOC(C)=O)C2=O
15400 nM	CC(=O)OCCN1C(=O)c2c(N3CCOCC3)nc3ccc(S(=O)(=O)N4CCOCC4)cc3c2C1=O
27900 nM	CC(=O)OCCN1C(=O)c2c(Nc3ccc(F)c(Cl)c3)nc3ccc(S(=O)(=O)N4CCOCC4)cc3c2C1=O
255 nM	CC(=O)OCCN1C(=O)c2c(SC(=N)N)nc3ccc(S(=O)(=O)N4CCOCC4)cc3c2C1=O
23 nM	CC(=O)OCCN1C(=O)c2c(C)nc3ccc(S(=O)(=O)N4CCOCC4)cc3c2C1=O
33 nM	CC(=O)OCCN1C(=O)c2c(-c3ccc(F)c(Cl)c3)nc3ccc(S(=O)(=O)N4CCOCC4)cc3c2C1=O
33 nM	CC(=O)OCCN1C(=O)c2c(/C=C/c3ccc(C(F)(F)F)cc3)nc3ccc(S(=O)(=O)N4CCOCC4)cc3c2C1=O
10900 nM	CC(=O)OCCN1C(=O)c2c(c3cc(S(=O)(=O)N4CCOCC4)ccc3[nH]c2=O)C1=O
5190 nM	CCOC(=O)C[C@@H](Nc1nc2ccc(S(=O)(=O)N3CCOCC3)cc2c2c1C(=O)N(CCOC(C)=O)C2=O)C(=O)OCC
58 nM	CC(=O)OCCN1C(=O)c2c(-c3ccc(C(=O)N(C)C)cc3)nc3ccc(S(=O)(=O)N4CCOCC4)cc3c2C1=O
27 nM	CC(=O)OCCN1C(=O)c2c(-c3ccccc3)nc3ccc(S(=O)(=O)N4CCOCC4)cc3c2C1=O
362 nM	COC(=O)CS(=O)(=O)c1nc2ccc(S(=O)(=O)N3CCOCC3)cc2c2c1C(=O)N(CCOC(C)=O)C2=O
352 nM	COC(=O)C[S+]([O-])c1nc2ccc(S(=O)(=O)N3CCOCC3)cc2c2c1C(=O)N(CCOC(C)=O)C2=O (configuration not stated)
33 nM	CC(=O)OCCN1C(=O)c2c(-c3cccnc3)nc3ccc(S(=O)(=O)N4CCOCC4)cc3c2C1=O
36 nM	CC(=O)OCCN1C(=O)c2c(-c3ccco3)nc3ccc(S(=O)(=O)N4CCOCC4)cc3c2C1=O
